Results on 27 compounds are retold here after patent US20130150325A1, “3-(Fluorovinyl)pyrazoles and their use” (BAYER INTELLECTUAL PROPERTY GMBH, priority 2011, published 2013).

By IC50 is commonly meant the point on the concentration scale where inhibition reaches its midpoint. A higher IC50 goes with weaker potency.

This test deals with HCT 116 cells transfected with a luciferase reporter under the control of an HIF-responsive sequence. The experiment in a line: HIF-luciferase assay. It is filed as cell-based. The note with it: Homo sapiens; HCT 116 HIF-luciferase reporter cells, hypoxia chamber (1% O2), 24 h; in some cases means of up to four individual determinations. As for the experimental part: HCT 116 cells were transfected in a stable manner with a plasmid which contained a luciferase reporter under the control of an HIF-responsive sequence. These cells were sown in microtitre plates [20 000 cells/cavity in RPMI 1640 medium with 10% foetal calf serum (FCS) and 100 μg/ml of hygromycin]. Incubation was carried out overnight under standard conditions (5% CO2, 21% O2, 37° C., moistened). The following morning the cells were incubated with various concentrations of the test substances (0-10 μmol/l) in a hypoxia chamber (1% O2). After 24 h, Bright Glo reagent (Promega, Wisconsin, USA) was added in accordance with the manufacturer's instructions, and after 5 min the luminescence was measured. Cells which were incubated under normoxia served as background controls.
The IC50 values from this assay for representative working examples are listed in the following table (in same cases as means of up to four individual determinations): […]

The compound `CNc1ccc(Cn2nc(/C(F)=C/c3ccc(CC(C)C)cc3)cc2C)cn1` [Example 90, 5-({3-[(Z)-1-Fluoro-2-(4-isobutylphenyl)vinyl]-5-methyl-1H-pyrazol-1-yl}methyl)-N-methyl-pyridine-2-amine] yielded an IC50 of 2 nM. The compound `Cc1cc(/C(F)=C/c2ccc(C(C)(C)C(F)(F)F)cc2)nn1Cc1cccc(N2CCC(C#N)CC2)c1` [Example 10, 1-{3-[(3-{(Z)-1-Fluoro-2-[4-(1,1,1-trifluoro-2-methylpropan-2-yl)phenyl]vinyl}-5-methyl-1H-pyrazol-1-yl)methyl]phenyl}piperidine-4-carbonitrite] showed a half-inhibitory concentration (IC50) of 0.4 nM.

In the case of `Cc1cc(/C(F)=C/c2ccc(OC(F)(F)F)cc2)nn1Cc1cccc(C(C)(C)O)c1` [Example 53, 2-{3-[(3-{(Z)-1-Fluoro-2-[4-(trifluoromethoxy)phenyl]vinyl}-5-methyl-1H-pyrazol-1-yl)methyl]-phenyl}propan-2-ol], the IC50 worked out at 4 nM. For `Cc1cc(/C(F)=C/c2ccc(C(F)(F)F)cc2)nn1Cc1cccc(C(=O)N2CCN(C3CC3)CC2)c1` [Example 41, (4-Cyclopropylpiperazin-1-yl) {3-[(3-{(Z)-1-fluoro-2-[4-(trifluoromethyl)phenyl]vinyl}-5-methyl-1H-pyrazol-1-yl)methyl]phenyl}methanone] the value was 3 nM; for `Cc1cc(/C(F)=C/c2ccc(C(C)(C)C(F)(F)F)c(F)c2)nn1Cc1cccc(C2(CO)CC2)c1` [Example 58, (1-{3-[(3-{(Z)-1-Fluoro-2-[3-fluoro-4-(1,1,1-trifluoro-2-methylpropan-2-yl)phenyl]vinyl}-5-methyl-1H-pyrazol-1-yl)methyl]phenyl}cyclopropyl)methanol], 2 nM.

`Cc1cc(/C(F)=C/c2ccc(OC(F)(F)F)cc2)nn1Cc1cccc(C(=O)N(C)C)c1` [Example 25, 3-[(3-{(Z)-1-Fluoro-2-[4-(trifluoromethoxy)phenyl]vinyl}-5-methyl-1H-pyrazol-1-yl)methyl]-N,N-dimethylbenzamide] returned a half-inhibitory concentration (IC50) of 6 nM. The compound `CCNC(=O)C(C)(C)Sc1ccc(/C=C(\F)c2cc(C)n(Cc3ccc(NC)nc3)n2)cc1` [Example 92, N-Ethyl-2-({4-[(Z)-2-fluoro-2-(5-methyl-1-{[6-(methylamino)pyridin-3-yl]methyl}-1H-pyrazol-3-yl)vinyl]phenyl}sulphanyl)-2-methylpropanamide] registered a half-maximal inhibitory concentration (IC50) of 5 nM. For `Cc1cc(/C(F)=C/c2ccc(OC(F)(F)F)cc2)nn1Cc1cccc(C(F)(F)CO)c1` [Example 61, 2,2-Difluoro-2-{3-[(3-{(Z)-1-fluoro-2-[4-(trifluoromethoxy)phenyl]vinyl}-5-methyl-1H-pyrazol-1-yl)methyl]phenyl}ethanol] the value was 4 nM. Regarding `Cc1cc(/C=C(\F)c2ccc(OC(F)(F)F)cc2)nn1Cc1cccc(C(=O)N2CCCC2)c1` [Example 114, {3-[(3-{(Z)-2-Fluoro-2-[4-(trifluoromethoxy)phenyl]vinyl}-5-methyl-1H-pyrazol-1-yl)methyl]-phenyl}(pyrrolidin-1-yl)methanone], the concentration for half-maximal inhibition (IC50) stood at 40 nM. As to `Cc1cc(/C(F)=C/c2ccc(C(C)(C)C(F)(F)F)cc2)nn1Cc1cccc(N2CCC(O)CC2)c1` [Example 13, 1-{3-[(3-{(Z)-1-Fluoro-2-[4-(1,1,1-trifluoro-2-methylpropan-2-yl)phenyl]vinyl}-5-methyl-1H-pyrazol-1-yl)methyl]phenyl}piperidin-4-ol], the IC50 stood at 0.5 nM.

Compound `Cc1ccc(Cn2nc(/C=C(\F)c3ccc(OC(F)(F)F)cc3)cc2C)cc1` [Example 111, 3-{(Z)-2-Fluoro-2-[4-(trifluoromethoxy)phenyl]vinyl}-5-methyl-1-(4-methylbenzyl)-1H-pyrazole] displayed a half-inhibitory concentration (IC50) of 40 nM. In turn, `Cc1cc(/C(F)=C/c2ccc(C3(C(F)(F)F)CC3)cc2)nn1Cc1cccc(N2CC(O)C2)c1` [Example 17, 1-[3-({3-[(Z)-1-Fluoro-2-{4-[1-(trifluoromethyl)cyclopropyl]phenyl}vinyl]-5-methyl-1H-pyrazol-1-yl}methyl)phenyl]azetidin-3-ol] yielded an IC50 of 1 nM. For `COC(=O)c1cccc(Cn2nc(/C(F)=C/c3ccc([Si](C)(C)C)cc3)cc2C)c1` [Example 23, Methyl 3-[(3-{(Z)-1-fluoro-2-[4-(trimethylsilyl)phenyl]vinyl}-5-methyl-1H-pyrazol-1-yl)methyl]benzoate] the value was 1 nM. In the case of `Cc1cc(/C(F)=C/c2ccc(C(C)(C)C(F)(F)F)cc2)nn1Cc1cccc(C(F)(F)CO)c1` [Example 62, 2,2-Difluoro-2-{3-[(3-{(Z)-1-fluoro-2-[4-(1,1,1-trifluoro-2-methylpropan-2-yl)phenyl]vinyl}-5-methyl-1H-pyrazol-1-yl)methyl]phenyl}ethanol], the IC50 was found to be 2.5 nM.

In the case of `Cc1cc(/C(F)=C/c2ccc(OC(F)(F)F)cc2)nn1Cc1cccc(N2CC(O)C2)c1` [Example 15, 1-{3-[(3-{(Z)-1-Fluoro-2-[4-(trifluoromethoxy)phenyl]vinyl}-5-methyl-1H-pyrazol-1-yl)methyl]phenyl}azetidin-3-ol], half-maximal inhibition (IC50) was put at 2 nM. Then `Cc1cc(/C(F)=C/c2ccc(C(C)(C)C(F)(F)F)cc2)nn1Cc1cccc(C(=O)N2CCN(C3CC3)CC2)c1` [Example 39, (4-Cyclopropylpiperazin-1-yl) {3-[(3-{(Z)-1-fluoro-2-[4-(1,1,1-trifluoro-2-methylpropan-2-yl)-phenyl]vinyl}-5-methyl-1H-pyrazol-1-yl)methyl]phenyl}methanone], with 2 nM; and `CNc1ccc(Cn2nc(/C(F)=C/c3ccc(C4(C(F)(F)F)CC4)cc3)cc2C)cn1` [Example 84, 5-({3-[(Z)-1-Fluoro-2-{4-[1-(trifluoromethyl)cyclopropyl]phenyl}vinyl]-5-methyl-1H-pyrazol-1-yl}methyl)-N-methylpyridine-2-amine], with 2 nM. Turning to `Cc1cc(/C(F)=C/c2ccc(SC(F)(F)F)cc2)nn1Cc1cccc(C2(CO)CC2)c1` [Example 56, {1-[3-({3-[(Z)-1-Fluoro-2-{4-[(trifluoromethyl)sulphanyl]phenyl}vinyl]-5-methyl-1H-pyrazol-1-yl}methyl)phenyl]cyclopropyl}methanol], the IC50 worked out at 2 nM. In turn, `Cc1cc(/C(F)=C/c2ccc(C3(C(F)(F)F)CC3)cc2)nn1Cc1cccc(C2(CO)CC2)c1` [Example 59, {1-[3-({3-[(Z)-1-Fluoro-2-{4-[1-(trifluoromethyl)cyclopropyl]phenyl}vinyl]-5-methyl-1H-pyrazol-1-yl}methyl)phenyl]cyclopropyl}methanol] gave an IC50 of 2 nM. Then `Cc1cc(/C(F)=C/c2ccc(OC(F)(F)F)cc2)nn1Cc1cccc(C2(O)CC2)c1` [Example 48, 1-{3-[(3-{(Z)-1-Fluoro-2-[4-(trifluoromethoxy)phenyl]vinyl}-5-methyl-1H-pyrazol-1-yl)methyl]-phenyl}cyclopropanol], with 2 nM.

Take `Cc1cc(/C(F)=C/c2ccc(SC(F)(F)F)cc2)nn1Cc1cccc(C(=O)N2CCC(O)CC2)c1` [Example 33, [3-({3-[(Z)-1-Fluoro-2-{4-[(trifluoromethyl)sulphanyl]phenyl}vinyl]-5-methyl-1H-pyrazol-1-yl}-methyl)phenyl](4-hydroxypiperidin-1-yl)methanone]: the midpoint of inhibition, the IC50, lay at 4 nM.

The compound `Cc1cc(/C(F)=C/c2ccc(C3(C(F)(F)F)CC3)cc2)nn1Cc1cccc(C2(O)CC2)c1` [Example 51, 1-[3-({3-[(Z)-1-Fluoro-2-{4-[1-(trifluoromethyl)cyclopropyl]phenyl}vinyl]-5-methyl-1H-pyrazol-1-yl}methyl)phenyl]cyclopropanol] showed an IC50 of 1 nM. For `Cc1cc(/C(F)=C/c2ccc(C(C)(C)C(F)(F)F)cc2)nn1Cc1cccc(C2(O)CC2)c1` [Example 49, 1-{3-[(3-{(Z)-1-Fluoro-2-[4-(1,1,1-trifluoro-2-methylpropan-2-yl)phenyl]vinyl}-5-methyl-1H-pyrazol-1-yl)methyl]phenyl}cyclopropanol] the value was 0.8 nM; for `Cc1cc(/C(F)=C/c2ccc(OC(F)(F)F)cc2)nn1Cc1cccc(C(=O)N2CCN(C3CC3)CC2)c1` [Example 37, (4-Cyclopropylpiperazin-1-yl) {3-[(3-{(Z)-1-fluoro-2-[4-(trifluoromethoxy)phenyl]vinyl}-5-methyl-1H-pyrazol-1-yl)methyl]phenyl}methanone], 3 nM; for `CNc1ccc(Cn2nc(/C(F)=C/c3ccc(SC(C)(C)C(=O)N4CCCC4)cc3)cc2C)cn1` [Example 93, 2-({4-[(Z)-2-Fluoro-2-(5-methyl-1-{[6-(methylamino)pyridin-3-yl]methyl}-1H-pyrazol-3-yl)-vinyl]phenyl}sulphanyl)-2-methyl-1-(pyrrolidin-1-yl)propan-1-one], 5 nM. In the case of `Cc1cc(/C(F)=C/c2ccc(C3(C(F)(F)F)CC3)cc2)nn1Cc1cccc(C(F)(F)CO)c1` [Example 63, 2,2-Difluoro-2-[3-({3-[(Z)-1-fluoro-2-{4-[1-(trifluoromethyl)cyclopropyl]phenyl}vinyl]-5-methyl-1H-pyrazol-1-yl}methyl)phenyl]ethanol], half-maximal inhibition (IC50) required 3 nM. For `CC(=O)OC1(c2cccc(Cn3nc(/C(F)=C/c4ccc(C(C)(C)C(F)(F)F)cc4)cc3C)c2)CC1` [Example 44, 1-{3-[(3-{(Z)-1-Fluoro-2-[4-(1,1,1-trifluoro-2-methylpropan-2-yl)phenyl]vinyl}-5-methyl-1H-pyrazol-1-yl)methyl]phenyl}cyclopropyl acetate] the value was 0.5 nM.
